Assay results as given in PubChem BioAssay (NCI).
Values joined by “and” are separate entries in the source; they are usually repeats but may differ in a detail not shown here. Equal values may be shown once.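 Each compound was tested at five concentrations against cells in 96-well plates for 48 hours. GI50 = concentration required for 50% inhibition of growth. The concentration for full growth arrest is given as TGI.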

Legend:
Assay in all cases: inhibition of tumour cell growth, NCI panel, 48 h
[1] = system: MDA-MB-468 breast
[2] = system: 786-0 renal
[3] = system: A498 renal
[4] = system: A549 NSCLC
[5] = system: ACHN renal
[6] = system: BT-549 breast
[7] = system: CAKI-1 renal
[8] = system: CCRF-CEM leukemia
[9] = system: COLO 205 colon
[10] = system: DU-145 prostate
[11] = system: EKVX NSCLC
[12] = system: HCC-2998 colon
[13] = system: HCT-116 colon
[14] = system: HCT-15 colon
[15] = system: HL-60(TB) leukemia
[16] = system: HOP-62 NSCLC
[17] = system: HOP-92 NSCLC
[18] = system: HS 578T breast
[19] = system: HT29 colon
[20] = system: IGROV1 ovarian
[21] = system: K-562 leukemia
[22] = system: KM12 colon
[23] = system: LOX IMVI melanoma
[24] = system: M14 melanoma
[25] = system: MALME-3M melanoma
[26] = system: MCF7 breast
[27] = system: MDA-MB-231 breast
[28] = system: MDA-MB-435
[29] = system: MOLT-4 leukemia
[30] = system: NCI-H226 lung
[31] = system: NCI-H23 lung
[32] = system: NCI-H460 lung
[33] = system: NCI-H522 lung
[34] = system: OVCAR-3 ovarian
[35] = system: OVCAR-4 ovarian
[36] = system: OVCAR-5 ovarian
[37] = system: OVCAR-8 ovarian
[38] = system: PC-3 prostate
[39] = system: RPMI-8226 leukemia
[40] = system: RXF 393 renal
[41] = system: SF-268 CNS
[42] = system: SF-295 CNS
[43] = system: SF-539 CNS
[44] = system: SK-MEL-28 melanoma
[45] = system: SK-MEL-5 melanoma
[46] = system: SK-OV-3 ovarian
[47] = system: SN12C renal
[48] = system: SNB-19 CNS
[49] = system: SNB-75 CNS
[50] = system: SW-620 colon
[51] = system: T-47D breast
[52] = system: TK-10 renal
[53] = system: U251 CNS
[54] = system: UACC-257 melanoma
[55] = system: UACC-62 melanoma
[56] = system: UO-31 renal

Cc1cccc(NC(=O)c2sc3nc4c(cc3c2N)CCCC4)c1C
GI50 [1]: 0.339 µM
TGI [1]: > 100 µM

CN1CCCN(CCNc2nccc(-c3c(-c4cccc(O)c4)nc4sccn34)n2)S1(=O)=O
GI50 [1]: 9.05 µM and 10.7 µM
TGI [1]: 24.1 µM and 53 µM

CCN(c1ccc(CO)c(Cl)c1)C(C)c1ccc(F)cc1 (configuration not stated)
GI50 [1]: 0.64 µM
TGI [1]: 5.26 µM

Fc1cccc(COc2ccc(Nc3ncnc4sc(-c5ccco5)cc34)cc2Cl)c1
GI50 [1]: > 17.7 µM
TGI [1]: > 25 µM

CC(C)n1c(/C=C/[C@@H](O)C[C@@H](O)CC(=O)O)c(-c2ccc(F)cc2)c2ccccc21
GI50 [1]: 5.72 µM and 2.55 µM
TGI [1]: > 100 µM

CCN1CCN(Cc2ccc(NC(=O)Nc3ccc(-n4ccc5c(NC(=O)c6ccccc6)nccc54)cc3)cc2C(F)(F)F)CC1
GI50 [1]: 1.77 µM
TGI [1]: 3.3 µM

COc1ccc(C(=O)N2c3ccccc3Sc3ccccc32)c(F)c1
GI50 [1]: 0.413 µM
TGI [1]: > 100 µM

O=C(Nc1ccc(OC(F)(F)F)cc1)c1sccc1NCc1ccnc2ccccc12
GI50 [1]: 1.52 µM
TGI [1]: 19.8 µM

COc1ccc(-c2cc(-c3ccc(Cl)cc3)c(C#N)c(=O)n2CCCCC(=O)Nc2ccccc2N)cc1
GI50 [1]: 5.68 µM
TGI [1]: 67.5 µM

CS(=O)(=O)c1ccc(Cl)c([N+](=O)[O-])c1
GI50 [1]: 1.6 µM
TGI [1]: 3.47 µM

COC(=O)c1ccc2c(c1)C(NC(C)=O)CCc1cc(OC)c(OC)c(OC)c1-2 (configuration not stated)
GI50 [1]: 0.0184 µM
TGI [1]: > 100 µM

S=C(N/N=C/c1cc(Cl)cc(Cl)c1)NC12CC3CC(CC(C3)C1)C2
GI50 [1]: 16.8 µM
TGI [1]: > 100 µM

CCOC(=O)c1c(NC(=O)c2ccc(C(C)C)cc2)sc2c(CN(C)C)c(O)ccc12
GI50 [1]: 1.88 µM
TGI [1]: 4.09 µM

CNC(=O)Nc1ccc(-c2nc(N3CCOCC3)nc3c2cnn3C2CCOCC2)cc1
GI50 [1]: 0.151 µM
TGI [1]: 0.936 µM

Cc1ccc(C(=O)Nc2ccc(CN3CCN(C)CC3)c(C(F)(F)F)c2)cc1C#Cc1cnc(N)c2ccc(F)cc12
GI50 [1]: 0.359 µM
TGI [1]: 1.19 µM

C#Cc1nc(/C=C/C(=O)NO)cs1
GI50 [1]: 1.11 µM
TGI [1]: 4.16 µM

CCN(CCCCCCCCCCN1CC(=O)N(CCCCCCCCCCN(CC)Cc2ccccc2OC)CC1=O)Cc1ccccc1OC
GI50 [1]: 1.11 µM
TGI [1]: 2.5 µM

CC1(C)N=C(N)N=C(N)N1c1ccc(CCc2ccccc2)c(Cl)c1
GI50 [1]: 0.0555 µM
TGI [1]: 1.34 µM

COc1cc(/C=C2\CN(C)CC3=C2Nc2nc(SC)[nH]c(=O)c2C3c2cc(OC)c(OC)c(OC)c2)cc(OC)c1OC (configuration not stated)
GI50 [1]: 2.2 µM
TGI [1]: 10.6 µM

CCNCCCn1c2c(c3cc(OC)c(OC)cc3c1=O)C(=O)c1cc(OC)cnc1-2
GI50 [1]: 0.31 µM
TGI [1]: 1.44 µM

Clc1ccc(COC(Cn2ccnc2)c2ccc(Cl)cc2Cl)cc1 (configuration not stated)
GI50 [1]: 2.02 µM
TGI [1]: 6.81 µM

C#C[C@]1(O)CC[C@H]2[C@@H]3CC=C4c5nc(Nc6ccccn6)sc5CC[C@]4(C)[C@H]3CC[C@@]21C
GI50 [1]: 1.62 µM
TGI [1]: 5.15 µM

COc1cc(-c2csc(NC(=O)c3cc(C(F)(F)F)cc(C(F)(F)F)c3)n2)cc(OC)c1OC
GI50 [1]: 1.64 µM
TGI [1]: 7.02 µM

Cc1ccc(C(=O)/C(=C/c2ccc([N+](=O)[O-])cc2)S(=O)Cc2ccccc2)cc1 (configuration not stated)
GI50 [1]: 1.71 µM
TGI [1]: 4.07 µM

C[n+]1cc2c3c(ccc2c2ccc4cc5c(cc4c21)OCO5)OCO3
GI50 [1]: 1.05 µM
TGI [1]: 2.48 µM

NS(=O)(=O)c1ccc(N2Cc3cc(Cl)ccc3OC3=C2C(=O)N(CC2CCCCC2)C3=O)cc1
GI50 [1]: 0.962 µM
TGI [1]: 2.73 µM

COc1cc(Nc2ccnc(N3CCN(c4ccnc5cc(Cl)ccc45)CC3)n2)cc(OC)c1
GI50 [1]: 0.832 µM
TGI [1]: > 84.9 µM

COc1ccc(Cl)cc1Nc1nc(C(F)(F)F)ccc1C(=O)NN
GI50 [1]: 3.88 µM
TGI [1]: > 85.9 µM

N=C(N)c1ccc(-c2ccc(-c3ccc(Cl)cc3Cl)o2)cc1
GI50 [1]: 1.94 µM
TGI [1]: 3.68 µM

C[C@]12CC[C@@H]3c4ccc(O)c([N+](=O)[O-])c4CC[C@H]3[C@@H]1CC[C@@H]2NS(=O)(=O)c1ccc(C(F)(F)F)cc1
GI50 [1]: 2.18 µM
TGI [1]: 6.29 µM

Clc1ccc(-c2ccc(OCCCN3CCN(c4ccncc4)CC3)cc2)cc1
GI50 [2]: 14 µM
TGI [2]: 27.1 µM
GI50 [3]: 15.8 µM
TGI [3]: 29.6 µM
GI50 [4]: 15.1 µM
TGI [4]: 29.9 µM
GI50 [5]: 16.3 µM
TGI [5]: 30.4 µM
GI50 [6]: 11.7 µM
TGI [6]: 25.9 µM
GI50 [7]: 15.3 µM
TGI [7]: 32.4 µM
GI50 [8]: 4.65 µM
TGI [8]: 24.1 µM
GI50 [9]: 7.31 µM
TGI [9]: 20.6 µM
GI50 [10]: 17.9 µM
TGI [10]: 55.4 µM
GI50 [11]: 12 µM
TGI [11]: 27.9 µM
GI50 [12]: 13.3 µM
TGI [12]: 26.6 µM
GI50 [13]: 2.73 µM
TGI [13]: 10.4 µM
GI50 [14]: 1.88 µM
TGI [14]: 3.82 µM
GI50 [15]: 4.46 µM
TGI [15]: 19.7 µM
GI50 [16]: 14.7 µM
TGI [16]: 29 µM
GI50 [17]: 3.46 µM
TGI [17]: 20.3 µM
GI50 [18]: 17.9 µM
TGI [18]: 45.3 µM
GI50 [19]: 3.77 µM
TGI [19]: 14.8 µM
GI50 [20]: 16.8 µM
TGI [20]: 32.1 µM
GI50 [21]: 2.64 µM
TGI [21]: > 100 µM
GI50 [22]: 14.5 µM
TGI [22]: 29.7 µM
GI50 [23]: 1.86 µM
TGI [23]: 3.63 µM
GI50 [24]: 14.3 µM
TGI [24]: 28.7 µM
GI50 [25]: 18.1 µM
TGI [25]: 32.7 µM
GI50 [26]: 6.19 µM
TGI [26]: 21.2 µM
GI50 [27]: 11.8 µM
TGI [27]: 24.7 µM
GI50 [28]: 11.1 µM
TGI [28]: 23.5 µM
GI50 [1]: 6.28 µM
TGI [1]: 19.5 µM
GI50 [29]: 6.71 µM
TGI [29]: > 100 µM
GI50 [30]: 20.8 µM
TGI [30]: 55.8 µM
GI50 [31]: 13.9 µM
TGI [31]: 29.1 µM
GI50 [32]: 7.47 µM
TGI [32]: 21.4 µM
GI50 [33]: 16.6 µM
TGI [33]: 31.9 µM
GI50 [34]: 13 µM
TGI [34]: 30.2 µM
GI50 [35]: 15.6 µM
TGI [35]: 41.7 µM
GI50 [36]: 14.5 µM
TGI [36]: 28.6 µM
GI50 [37]: 22 µM
TGI [37]: 68.1 µM
GI50 [38]: 8.43 µM
TGI [38]: 51.3 µM
GI50 [39]: 6.95 µM
TGI [39]: > 100 µM
GI50 [40]: 6.74 µM
TGI [40]: 20.6 µM
GI50 [41]: 16.9 µM
TGI [41]: 36.5 µM
GI50 [42]: 13.9 µM
TGI [42]: 28.1 µM
GI50 [43]: 12.5 µM
TGI [43]: 25.4 µM
GI50 [44]: 15.3 µM
TGI [44]: 29.2 µM
GI50 [45]: 14.9 µM
TGI [45]: 28.1 µM
GI50 [46]: 15.5 µM
TGI [46]: 30.4 µM
GI50 [47]: 13 µM
TGI [47]: 26.3 µM
GI50 [48]: 15.7 µM
TGI [48]: 30 µM
GI50 [49]: 14.9 µM
TGI [49]: 32.5 µM
GI50 [50]: 9.92 µM
TGI [50]: 23.3 µM
GI50 [51]: 16.2 µM
TGI [51]: 40.2 µM
GI50 [52]: 19.6 µM
TGI [52]: 36.2 µM
GI50 [53]: 11.8 µM
TGI [53]: 25.4 µM
GI50 [54]: 17.3 µM
TGI [54]: 32.6 µM
GI50 [55]: 16.7 µM
TGI [55]: 30.5 µM
GI50 [56]: 14.7 µM
TGI [56]: 29.6 µM

Cc1cc(N(CCNc2ccnc3cc(Cl)ccc23)Cc2ccc3c(c2)OCO3)nc(N2CCN(C)CC2)n1
GI50 [1]: 1.87 µM
TGI [1]: 4.02 µM

CC1=CC(=O)CC(C)(C)[C@@]1(O)/C=C/C(C)=C\C(=O)O
GI50 [1]: 0.116 µM
TGI [1]: 0.308 µM

Cn1cc(C2=C(c3cn(C)c4ccc(N)cc34)C(=O)NC2=O)c2ccccc21
GI50 [1]: 7.35 µM
TGI [1]: > 25 µM

N/C(=N\OC(=O)c1ccccc1)C(C(=O)NOC(=O)c1ccccc1)C1CCCCC1 (configuration not stated)
GI50 [1]: 13.3 µM
TGI [1]: 29.4 µM

CC[C@H](C)[C@H](NC(=O)c1cnccn1)C(=O)N(C)[C@H](C[C@@H](OC(C)=O)c1nc(C(=O)N[C@@H](Cc2ccccc2)C[C@H](C)C(=O)OC)cs1)C(C)C
GI50 [1]: 0.595 µM
TGI [1]: 29.8 µM
